Reference: US10927096B2, “Ester substituted ion channel blockers and methods for use” (Nocion Therapeutics, Inc., priority 2019, dated 2021)

Experiments:
[1] = PAMPA membrane permeability assay; type: physicochemical; settings: pH 7.4 buffer, GIT lipid, 4 hours incubation
Procedure: The PAMPA assay (pION, Inc., Woburn Mass.) was used to determine the ability of compounds of the invention to cross an artificial lipid membrane by passive diffusion. Test compounds were dissolved in DMSO (10 mM) and diluted 200-fold in buffer (pION Inc., pH 7.4) to provide 50 uM stock solutions. Buffer (150 μL) was added to a UV blank plate and stock solutions (150 μL) were transferred to a UV reference plate. The blank and reference spectrum were read using a spectrophotometer. Stock solutions (200 μL) were added to the donor plate of the PAMPA sandwich plate and an accept plate painted with GIT lipid (pION Inc, 5 μL) was placed on top. Buffer (200 μL) was added to the acceptor plate and the PAMPA sandwich plate was incubated for 4 hours. Aliquots (150 μL) from the acceptor plate were added to a UV plate and read as acceptor spectrum. Aliquots (150 μL) of the donor solutions were added to a UV analysis plate and read as donor spectrum. The permeability coefficient of test compounds was calculated using PAMPA Explorer™ software (version 3.5.0.4) based on the AUC of the reference plate, the donor plate, and the acceptor plate.
The PAMPA permeability results (10^−6 cm/s) of representative compounds are reported as “+” (<0.1 10^−6 cm/s), “++” (0.1-2.0 10^−6 cm/s), “+++” (2.0-10.010^−6 cm/s) or “++++” (>10.0 10^−6 cm/s).

[2] = molecular target: T1, NaV1.7 (Homo sapiens, UniProt Q15858); test: Automated patch clamp (Qube 384), internal block of NaV1.7 in HEK293 cells; type: cell-based; settings: compound in internal solution, read-out: NaV1.7 Intracellular Inhibition
T1 construct: expressed in transfected cells; host or cells: HEK293, tetracycline-inducible
Procedure: (§1) NaV1.7 was expressed in HEK293 cells upon induction with tetracycline. Cells were cultured in DMEM containing 10% dialyzed Fetal Bovine Serum (VWR, Radnor, Pa.), 1% Glutamax (VWR, Radnor, Pa.), 1% Penicillin-Streptomycin (VWR, Radnor, Pa.), 100 mg/L Hygromycin (Thermo Fisher Scientific, Waltham, Mass. and 5 mg/L Blasticidin (Alfa Aesar, Haverhill, Mass.). Cells were grown and maintained at 37° C. in a humidified environment containing 10% CO2 in air. Cells were detached from the culture flask for passage and harvested using 0.05% Trypsin-EDTA (Thermo Fisher Scientific, Waltham, Mass.). To induce NaV1.7, cells were induced with tetracycline (0.1-1 μg/mL, IBI Scientific, Peosta, Iowa) the day before recording.
(§2) Before experiments, cells were washed with DPBS (VWR, Radnor, Pa.), digested with Detachin (VWR Radnor, Pa.) and then triturated 10 times in CHO Serum-Free Media (VWR Radnor, Pa.) to resuspend the cells and to break apart cell aggregates. Cells were counted and the final concentration was set at 2-5 million cells per mL.
(§3) The intracellular solution contained the following: 140 mM CsF, 1 mM/5 mM EGTA/CsOH, 10 mM HEPES, 10 mM NaCl, adjusted to pH 7.3 with CsOH, and osmolality to 320 with sucrose. The external solution contained the following: 145 mM NaCl, 4 mM KCl, 1 mM MgCl2, 2 mM CaCl2, 10 mM HEPES, 10 mM Glucose, adjusted to pH 7.4 with CsOH and osmolality to 305 with sucrose. All chemicals are from Sigma-Aldrich, St. Louis, Mo. In order to test the degree of internal block by test compounds, the compounds were dissolved in internal solution at the indicated test concentration. […] In order to test the degree of external block by test compounds the compounds were dissolved in external solution at the indicated test concentration.
(§4) Automated Patch Clamps were performed on Qube 384 (Sophion Bioscience, Woburn Mass.) with multihole Qchips at a temperature setting of 22 degrees. The whole cells configuration was formed with default Qube seal and break-in parameter. The membrane potential was held at −100 mV before the voltage protocol began. Two voltage protocols were followed.
(§5) Step 1: Cells were held at −100 mV with a depolarized pulse to −20 mV for 10 ms, the interval was set at 5 s. Currents were corrected by default leak subtraction from every pulse. The duration was set at 5 mins.
(§6) Step 2: Cells were held at −100 mV with a depolarized pulse to −20 mV for 10 ms. The frequency was 5 Hz. Currents were corrected by leak subtraction calculated before step 2. The duration was set at 4 mins.
After Step 2, the Qchip was removed from the recording chamber. The internal solution was changed with solutions containing test compounds. Qchips were held at −100 mV without pulsing after being replaced in the recording chamber. The total solution switching time was 8 minutes. After the internal solution exchange, Cells were recorded and step 2 for repeated for 10 minutes.
Data analysis was performed by Sophion Analyzer. Cells were filtered with minimum 50 MOhm seal resistance and minimum 5 nA starting current. The rundown of the currents was corrected with control cells (Non-Drug). The remaining was calculated by averaging last 3 points in the end of experiments. The base line was calculated as the average of last 3 points of Step 2. IC50 curves were plotted with DR-plots/Hill function (a dose-response plot with a Hill fit).
Representative examples of the invention were tested for intracellular inhibition of NaV 1.7 in the automated patch clamp assay. Activity Range is reported as IC50: “++++” (<1 μM), “+++” (1-3 μM), “++” (3-10 μM) or “+” (10-30 μM).

[3] = molecular target: T1, NaV1.7; test: Automated patch clamp (Qube 384), external block of NaV1.7 in HEK293 cells; type: cell-based; settings: compound in external solution, read-out: NaV1.7 Extracellular Inhibition
Procedure: as §1, §2, §3, §4, §5, §6
After Step 2, the external solution was changed with solutions containing test compounds. Qchips were held at −100 mV without pulsing. The total solution switching time was 8 minutes. After the external solution exchange, cells were recorded using the same procedure as step 2 for 10 minutes.
Data analysis was performed by Sophion Analyzer. Data were corrected with control cells (Non-Drug). The IC50 data were plotted with DR-plots/Hill function (a dose-response plot with a Hill fit).
Representative examples of the invention were tested for extracellular inhibition of NaV 1.7 in the automated patch clamp assay. Activity Range is reported as IC50: “++++” (<1 μM), “+++” (1-10 μM), “++” (10-30 μM) or “+” (>30 μM).

T1 sequence (Q15858 whole entry): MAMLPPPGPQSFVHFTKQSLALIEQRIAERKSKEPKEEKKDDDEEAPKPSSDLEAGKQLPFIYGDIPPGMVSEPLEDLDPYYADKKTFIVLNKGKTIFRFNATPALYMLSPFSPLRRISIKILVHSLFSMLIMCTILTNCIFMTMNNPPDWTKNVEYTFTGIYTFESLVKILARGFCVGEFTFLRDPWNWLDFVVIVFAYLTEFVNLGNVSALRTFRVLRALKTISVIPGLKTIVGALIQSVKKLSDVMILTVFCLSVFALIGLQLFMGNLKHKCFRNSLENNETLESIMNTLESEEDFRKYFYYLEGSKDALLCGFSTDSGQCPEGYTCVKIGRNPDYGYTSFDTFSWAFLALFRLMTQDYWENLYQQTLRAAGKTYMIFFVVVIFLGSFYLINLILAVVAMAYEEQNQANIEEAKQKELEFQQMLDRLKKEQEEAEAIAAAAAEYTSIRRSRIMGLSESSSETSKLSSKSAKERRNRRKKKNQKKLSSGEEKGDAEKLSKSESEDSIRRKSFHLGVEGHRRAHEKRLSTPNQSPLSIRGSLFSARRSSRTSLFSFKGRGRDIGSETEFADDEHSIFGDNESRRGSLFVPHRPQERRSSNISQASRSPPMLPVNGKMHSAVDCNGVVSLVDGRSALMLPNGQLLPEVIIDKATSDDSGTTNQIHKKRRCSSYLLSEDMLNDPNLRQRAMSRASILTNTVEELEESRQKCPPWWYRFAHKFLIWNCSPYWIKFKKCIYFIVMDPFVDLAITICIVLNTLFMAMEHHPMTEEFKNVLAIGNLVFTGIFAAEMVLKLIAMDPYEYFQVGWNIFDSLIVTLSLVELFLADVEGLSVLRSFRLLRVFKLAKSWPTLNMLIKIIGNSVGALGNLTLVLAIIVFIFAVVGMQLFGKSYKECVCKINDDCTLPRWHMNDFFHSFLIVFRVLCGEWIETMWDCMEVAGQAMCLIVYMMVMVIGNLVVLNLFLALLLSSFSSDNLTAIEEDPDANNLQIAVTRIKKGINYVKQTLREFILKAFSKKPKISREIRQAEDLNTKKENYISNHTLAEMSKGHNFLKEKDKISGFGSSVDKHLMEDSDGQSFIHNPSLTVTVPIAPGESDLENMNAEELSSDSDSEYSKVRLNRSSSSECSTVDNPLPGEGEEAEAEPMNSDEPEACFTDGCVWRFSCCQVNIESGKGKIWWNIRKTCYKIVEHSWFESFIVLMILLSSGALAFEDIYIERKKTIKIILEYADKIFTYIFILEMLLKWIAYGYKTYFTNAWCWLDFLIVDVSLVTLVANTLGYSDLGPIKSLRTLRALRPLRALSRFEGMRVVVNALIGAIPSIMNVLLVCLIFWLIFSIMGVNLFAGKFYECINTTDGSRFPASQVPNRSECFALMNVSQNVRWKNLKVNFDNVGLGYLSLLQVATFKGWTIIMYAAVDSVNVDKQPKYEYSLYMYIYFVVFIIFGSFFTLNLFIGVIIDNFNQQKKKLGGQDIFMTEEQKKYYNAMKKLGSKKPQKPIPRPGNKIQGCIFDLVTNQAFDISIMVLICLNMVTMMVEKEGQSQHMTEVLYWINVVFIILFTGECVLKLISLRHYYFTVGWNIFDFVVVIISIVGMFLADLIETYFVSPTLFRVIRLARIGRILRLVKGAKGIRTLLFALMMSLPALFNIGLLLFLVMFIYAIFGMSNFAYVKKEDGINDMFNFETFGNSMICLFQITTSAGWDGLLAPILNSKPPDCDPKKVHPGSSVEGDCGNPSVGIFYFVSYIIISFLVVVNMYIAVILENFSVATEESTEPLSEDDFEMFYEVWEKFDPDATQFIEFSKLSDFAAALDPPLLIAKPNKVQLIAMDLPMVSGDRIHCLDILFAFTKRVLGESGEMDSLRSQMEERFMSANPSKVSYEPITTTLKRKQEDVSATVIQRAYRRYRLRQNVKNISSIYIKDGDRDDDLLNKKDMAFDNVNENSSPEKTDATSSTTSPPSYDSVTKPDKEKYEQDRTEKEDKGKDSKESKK

SMILES | PAMPA (10^−6 cm/s) [1] | IC50 [2] [nM] | IC50 [3] [nM]
CCOC(=O)C1CCC[N+](CC(=O)Nc2c(C)cccc2C(=O)OC)(Cc2ccccc2)C1 (mixture of isomers) [Compound 16] | + (<0.1 10^−6 cm/s) | < 1000 | 1000 to 10000
CCCNC(=O)C1CCC[N+](CC(=O)Nc2c(C)cccc2C(=O)OC)(Cc2ccccc2)C1 (mixture of isomers) [Compound 28] | +++ (2.0-10.010^−6 cm/s) | < 1000 | 10000 to 30000
COC(=O)c1cccc(C)c1NC(=O)C[N+]1(Cc2ccccc2)CCCC(C(=O)N(C)C)C1 (mixture of isomers) [Compound 40] | + (<0.1 10^−6 cm/s) | < 1000 | –
COC(=O)c1cccc(C)c1NC(=O)C[N+]1(Cc2ccccc2)CCCC(C(=O)N2CCCC2)C1 (mixture of isomers) [Compound 43] | + (<0.1 10^−6 cm/s) | 1000 to 3000 | –
COC(=O)C[N+]1(CC(=O)Nc2c(C)cccc2C(=O)OC)CCCC(c2ccccc2)C1 (mixture of isomers) [Compound 64] | + (<0.1 10^−6 cm/s) | < 1000 | –
CC[N+]1(CC(=O)Nc2c(C)cccc2C(=O)OC)CCCC(c2ccccc2)C1 (mixture of isomers) [Compound 65] | + (<0.1 10^−6 cm/s) | < 1000 | 10000 to 30000
COC(=O)c1cccc(C)c1NC(=O)C[N+]1(Cc2ccccc2)CCCCCC1 [Compound 1] | + (<0.1 10^−6 cm/s) | < 1000 | 1000 to 10000
COC(=O)c1cccc(C)c1NC(=O)C[N+]1(Cc2ccccc2)CCCCC1.[Br-] [Compound 3] | + (<0.1 10^−6 cm/s) | 1000 to 3000 | > 30000
CCOC(=O)c1cccc(C)c1NC(=O)C[N+]1(Cc2ccccc2)CCCCC1.[Br-] [Compound 4] | + (<0.1 10^−6 cm/s) | < 1000 | 1000 to 10000
COC(=O)c1cccc(C)c1NC(=O)C[N+]1(Cc2ccccc2)CCCC1 [Compound 5] | +++ (2.0-10.010^−6 cm/s) | 1000 to 3000 | > 30000
CCCOC(=O)c1cccc(C)c1NC(=O)C[N+]1(Cc2ccccc2)CCCCCC1.[Br-] [Compound 6] | + (<0.1 10^−6 cm/s) | 1000 to 3000 | –
Cc1cccc(C(=O)OC(C)C)c1NC(=O)C[N+]1(Cc2ccccc2)CCCCCC1.[Br-] [Compound 7] | + (<0.1 10^−6 cm/s) | < 1000 | 1000 to 10000
CCNC(=O)C1CCC[N+](CC(=O)Nc2c(C)cccc2C(=O)OC)(Cc2ccccc2)C1.O=C([O-])C(F)(F)F (stereo not shown) [Compound 33] | ++ (0.1-2.0 10^−6 cm/s) | < 1000 | –
COC(=O)c1cccc(C)c1NC(=O)C[N+]1(Cc2ccccc2)CCCC(C(=O)N2CCCCCC2)C1.[Br-] (stereo not shown) [Compound 34] | + (<0.1 10^−6 cm/s) | 1000 to 3000 | –
COC(=O)c1cccc(C)c1NC(=O)C[N+]1(Cc2ccccc2)CCCC(C(=O)NC2CCCC2)C1.[Br-] (stereo not shown) [Compound 41] | + (<0.1 10^−6 cm/s) | 1000 to 3000 | –
CC[N+]1(CC(=O)Nc2c(C)cccc2C(=O)OC)CCCC(C(=O)NC)C1.[I-] (stereo not shown) [Compound 46] | + (<0.1 10^−6 cm/s) | 3000 to 10000 | –
CC[N+]1(CC(=O)Nc2c(C)cccc2C(=O)OC)CCCC(C(=O)NC2CCCCC2)C1.[I-] (stereo not shown) [Compound 56] | + (<0.1 10^−6 cm/s) | 1000 to 3000 | –
CCc1cccc(C[N+]2(C(CC)C(=O)Nc3c(C)cccc3C(=O)OC)CCCCC2)c1.O=C[O-] (stereo not shown) [Compound 58] | + (<0.1 10^−6 cm/s) | 3000 to 10000 | –

Second part, the compound after the results:

PAMPA (10^−6 cm/s) [1] | IC50 [2] [nM] | IC50 [3] [nM] | SMILES
+ (<0.1 10^−6 cm/s) | 1000 to 3000 | – | CCCCOC(=O)C1CCC[N+](CC(=O)Nc2c(C)cccc2C(=O)OC)(Cc2ccccc2)C1.[Br-] (mixture of isomers) [Compound 14]
+ (<0.1 10^−6 cm/s) | 1000 to 3000 | – | CCCCOC(=O)C1CCC[N+](CC)(CC(=O)Nc2c(C)cccc2C(=O)OC)C1.[I-] (mixture of isomers) [Compound 15]
+ (<0.1 10^−6 cm/s) | 1000 to 3000 | – | CC[N+]1(CC(=O)Nc2c(C)cccc2C(=O)OC)CCCC(C(=O)OC2CCCCC2)C1 (mixture of isomers) [Compound 27]
+ (<0.1 10^−6 cm/s) | < 1000 | > 30000 | CNC(=O)C1CCC[N+](CC(=O)Nc2c(C)cccc2C(=O)OC)(Cc2ccccc2)C1 (mixture of isomers) [Compound 31]
+ (<0.1 10^−6 cm/s) | 1000 to 3000 | – | CC[N+]1(CC(=O)Nc2c(C)cccc2C(=O)OC)CCCC(C(=O)N2CCCC2)C1 (mixture of isomers) [Compound 54]
+ (<0.1 10^−6 cm/s) | < 1000 | – | CNC(=O)C[N+]1(CC(=O)Nc2c(C)cccc2C(=O)OC)CCCC(c2ccccc2)C1.[Br-] (mixture of isomers) [Compound 59]
+ (<0.1 10^−6 cm/s) | < 1000 | – | COC(=O)c1cccc(C)c1NC(=O)C[N+]1(CC(N)=O)CCCC(c2ccccc2)C1 (mixture of isomers) [Compound 61]
+ (<0.1 10^−6 cm/s) | 1000 to 3000 | – | CCN(CC)C(=O)C[N+]1(CC(=O)Nc2c(C)cccc2C(=O)OC)CCCC(c2ccccc2)C1 (mixture of isomers) [Compound 62]
+ (<0.1 10^−6 cm/s) | < 1000 | 1000 to 10000 | CCOC(=O)c1cccc(C)c1NC(=O)C[N+]1(Cc2ccccc2)CCCCCC1 [Compound 2]
+ (<0.1 10^−6 cm/s) | 1000 to 3000 | – | CCCOC(=O)C1CCC[N+](CC)(CC(=O)Nc2c(C)cccc2C(=O)OC)C1.[I-] (stereo not shown) [Compound 26]
+ (<0.1 10^−6 cm/s) | < 1000 | – | COC(=O)c1cccc(C)c1NC(=O)C[N+]1(CC(=O)N(C)C)CCCC(c2ccccc2)C1.O=C([O-])C(F)(F)F (stereo not shown) [Compound 60]
+++ (2.0-10.010^−6 cm/s) | < 1000 | – | CCOC(=O)c1cccc(C)c1NC(=O)C[n+]1cccc(-c2ccccc2)c1 [Compound 67]
